Measurements reported in publication PMC10658973, “Thiazolopyrimidine derivatives as novel class of small molecule tyrosinase inhibitor” (BMC Chemistry, 2023).
“Also recorded” adds a separate entry of the source. Read-outs that look alike come from different tables or passages of the source.

Experiments:
tyrosinase [1] = details: previously reported, cited from earlier work
[2] = molecular target: tyrosinase (EC 1.14.18.1) (Agaricus bisporus, UniProt C7FF04); assay: Tyrosinase inhibitory assay (L-Dopa oxidation); type: biochemical; details: for IC50: tyrosinase, L-Dopa substrate, mean of three independent experiments
tyrosinase [3] = assay: Enzyme kinetic studies (Lineweaver-Burk, L-Dopa substrate); type: biochemical
Excerpt: The Lineweaver–Burk reciprocal plot was provided by plotting 1/V against 1/[S] at variable concentrations of the L-Dopa.

tyrosinase [4] = assay: UV/VIS spectra of tyrosinase with L-Dopa and inhibitor; type: biochemical; details: 475 nm, L-Dopa + tyrosinase, various concentrations of inhibitor
Experimental: UV spectra of compound 6a, tyrosinase and L-Dopa were analyzed separately. […] However, when L-Dopa was added to tyrosinase without an inhibitor, the highest absorbance was observed, confirming the generation of dopachrome.

mTYR = tested on: mTYR; set-up: method as in PMID 29427586; details: previously reported; cited from earlier work
hTYR = tested on: hTYR; set-up: method as in PMID 29427586; details: previously reported; cited from earlier work

tyrosinase (EC 1.14.18.1), sequence (C7FF04 1-392): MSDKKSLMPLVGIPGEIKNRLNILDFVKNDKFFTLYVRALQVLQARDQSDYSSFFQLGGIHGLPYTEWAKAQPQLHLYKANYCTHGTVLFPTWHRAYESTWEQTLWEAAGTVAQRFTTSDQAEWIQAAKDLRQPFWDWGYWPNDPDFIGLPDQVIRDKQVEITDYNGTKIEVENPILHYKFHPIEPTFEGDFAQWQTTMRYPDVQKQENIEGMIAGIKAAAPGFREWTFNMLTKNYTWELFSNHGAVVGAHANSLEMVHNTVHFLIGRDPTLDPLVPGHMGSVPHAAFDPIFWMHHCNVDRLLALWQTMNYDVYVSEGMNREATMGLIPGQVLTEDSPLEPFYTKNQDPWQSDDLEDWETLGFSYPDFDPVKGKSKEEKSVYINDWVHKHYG

SMILES	IC50 (tyrosinase [1]) [µM]	melting point [°C]	IC50 [2] [µM]	further results
Cn1cc[nH]c1=S [C, methimazole]	114			
CCOC(=O)C1=C(C)N=C2SC=C(C)N2C1c1cccc(F)c1 (centres unmarked) [Compound 6c, Ethyl 5-(3-fluorophenyl)-3,7-dimethyl-5H-thiazolo[3,2-a]pyrimidine-6-carboxylate]		113 to 114	56	
CCOC(=O)C1=C(C)N=C2SC=C(C)N2C1c1ccccc1F (centres unmarked) [Compound 6b, Ethyl 5-(2-fluorophenyl)-3,7-dimethyl-5H-thiazolo[3,2-a]pyrimidine-6-carboxylate]		111 to 112	40.8	
CCOC(=O)C1=C(C)N=C2SC=C(C)N2C1c1ccccc1 (centres unmarked) [Compound 6a, Ethyl 3,7-dimethyl-5-phenyl-5H-thiazolo[3,2-a]pyrimidine-6-carboxylate]		110 to 111	28.5	type of inhibition (tyrosinase [3]; Lineweaver-Burk plot, L-Dopa substrate): noncompetitive inhibitor; also recorded: noncompetitive mode of inhibition; Km (tyrosinase [3]; inhibitor concentration 5 µM): 690 µM; Vmax (tyrosinase [3]; inhibitor concentration 5 µM): 22.22 mM/min; Km (tyrosinase [3]; inhibitor concentration 10 µM): 680 µM; Vmax (tyrosinase [3]; inhibitor concentration 10 µM): 12.66 mM/min; Km (tyrosinase [3]; inhibitor concentration 25 µM): 650 µM; Vmax (tyrosinase [3]; inhibitor concentration 25 µM): 10.35 mM/min; Km (tyrosinase [3]; inhibitor concentration 50 µM): 690 µM; Vmax (tyrosinase [3]; inhibitor concentration 50 µM): 8.40 mM/min; Km (tyrosinase [3]; inhibitor concentration 100 µM): 660 µM; Vmax (tyrosinase [3]; inhibitor concentration 100 µM): 5.15 mM/min; absorbance intensity (dopachrome formation) (tyrosinase [4]): decreased dose-dependently
CC(C)C(=O)Nc1nc(-c2ccc(O)cc2O)cs1 [Compound E]				IC50 (mTYR): 108 µM; IC50 (hTYR): 1.1 µM
CCOC(=O)C1=C(N)Oc2c(ccc3ccccc23)C1c1ccc(N(C)C)cc1 (centres unmarked) [F]	34.1			
CCOC(=O)C1=C(C)N=C2SC=C(C)N2C1c1ccc(OC)cc1 (centres unmarked) [Compound 6i, Ethyl 5-(4-methoxyphenyl)-3,7-dimethyl-5H-thiazolo[3,2-a]pyrimidine-6-carboxylate]		111 to 112	35.7	
CCOC(=O)C1=C(C)N=C2SC=C(C)N2C1c1cccc(Br)c1 (centres unmarked) [Compound 6f, Ethyl 5-(3-bromophenyl)-3,7-dimethyl-5H-thiazolo[3,2-a]pyrimidine-6-carboxylate]		112 to 113	85.3	
CCOC(=O)C1=C(C)N=C2SC=C(C)N2C1c1ccccc1Cl (centres unmarked) [Compound 6d, Ethyl 5-(2-chlorophenyl)-3,7-dimethyl-5H-thiazolo[3,2-a]pyrimidine-6-carboxylate]		114 to 115	34.2	
NC(=S)N/N=C/c1cc(COC(=O)c2ccccc2)cs1 [G]	0.068			
CCOC(=O)C1=C(C)N=C2SC=C(C)N2C1c1ccc(C)cc1 (centres unmarked) [Compound 6h, Ethyl 3,7-dimethyl-5-(p-tolyl)-5H-thiazolo[3,2-a]pyrimidine-6-carboxylate]		114 to 115	> 250	tyrosinase inhibitory activity (in words) ([2]; SAR discussion): complete loss of activity
Nc1nc(-c2ccc(O)cc2O)cs1 [Compound D]	51			
CCOC(=O)C1=C(C)N=C2SC=C(C)N2C1c1ccc(O)c(OC)c1 (centres unmarked) [Compound 6j, Ethyl 5-(4-hydroxy-3-methoxyphenyl)-3,7-dimethyl-5H-thiazolo[3,2-a]pyrimidine-6-carboxylate]		121 to 122	40.8	
CCOC(=O)C1=C(C)N=C2SC=C(C)N2C1c1cccc([N+](=O)[O-])c1 (centres unmarked) [Compound 6g, Ethyl 3,7-dimethyl-5-(3-nitrophenyl)-5H-thiazolo[3,2-a]pyrimidine-6-carboxylate]		151 to 152	45.2	
CCOC(=O)C1=C(C)N=C2SC=C(C)N2C1c1ccc(Cl)cc1 (centres unmarked) [Compound 6e, Ethyl 5-(4-chlorophenyl)-3,7-dimethyl-5H-thiazolo[3,2-a]pyrimidine-6-carboxylate]		113 to 114	37.7	
CCCCC(=O)NC(=S)Nc1ccc(OC)cc1 [B]	1.56			IC50 (tyrosinase [1]; listed as compound B): 5.4 µM
